Assay [1] deals with Mycobacterium tuberculosis Erdman. Nature of the assay: microplate Alamar blue assay (MABA), MIC. The format is cell-based. A general note: The colour change of resazurin is a common sign of viable cells or microbes.
In the next assay the test system is Vero cells. Nature of the assay: cytotoxicity, MTT assay. The format is cell-based. The note with it: Chlorocebus sabaeus, Vero; cytotoxicity; read-out: IC50 Vero. Here is the method: The compounds were examined for toxicity (IC50) using MTT assay. Briefly, cells (3 ~ 5 × 10^3 cells/well) were seeded in a 96-well plate. After 24 h incubation, the cells were treated with various concentrations of drugs for 24, 48, 72 h, respectively. Columns one and two in the assay plates contained-media +0.1% DMSO for a negative control ,Then, 20 μl of a 5 mg/mL MTT solution was added to each well, and the plates were incubated for an additional 2~4 h at 37 °C. The medium was subsequently discarded, and DMSO 150 μL was added to dissolve the formazan. Oscillate 15 min, the OD 570 was measured using a Spectra MAX M5 microplate spectrophotometer (Molecular Devices, CA, USA), and the IC50 values were calculated.
Compound MIC was conducted by ShangHai Chempartner Co., Ltd (Shanghai, China) using the microplate Alamar Blue assay (MABA) against Mycobacterium tuberculosis H37Ra (ATCC 25177). Cytotoxicity of tested compounds was assessed on Vero cells.
(In general: Tetrazolium assays rely on reduction of a dye to a coloured formazan, in cell work by metabolically active cells.)

Assay [2] has as its system Mycobacterium tuberculosis H37Rv. Nature of the assay: microplate Alamar blue assay (MABA), MIC. The format is cell-based. The following applies: replicating H37Rv.
The next assay concerns XDR-TB clinical isolates. Nature of the assay: microbe, parasite or virus in culture. The note with it: for MIC: Mycobacterium tuberculosis; for MIC, XDR-TB strain X15 / MIC, XDR-TB strain X17: clinical isolate, Table 2 prints no unit, test range 0.0156 to 64 μg/mL. The format is cell-based, Mycobacterium tuberculosis.
The next assay deals with MDR-TB clinical isolates. Nature of the assay: microbe, parasite or virus in culture. The format is cell-based. The following applies: Mycobacterium tuberculosis.
In another assay the test system is M. tuberculosis H37Rv. Nature of the assay: MABA checkerboard synergy assay. The format is cell-based, Mycobacterium tuberculosis. The note with it: for MIC: Mycobacterium tuberculosis, H37RV, 336 h, checkerboard, drug alone, read-out: MIC against H37Rv, MIC alone.
Another assay deals with Mycobacterium avium. Nature of the assay: microdilution plate assay, MIC. The format is cell-based.
The test system of assay [3] is M. tuberculosis Erdman in J774A.1 cells. Nature of the assay: macrophage assay, intracellular activity. The format is cell-based, Mycobacterium tuberculosis. Here is the method: As described previously, J774A.1 cells were grown in 75-cm2 cell culture flasks in 10% FBS in Dulbecco’s modified Eagle’s medium (DMEM) until confluency. The cells were detached using a cell scraper, and then centrifuged at 200 g for 5 min at room temperature. The cells were incubated at 37 °C under 5% CO2 for 16 h after distributing into 24-well plates containing coverslips. M. tuberculosis Erdman (ATCC 35801) were diluted to a final concentration of 1 × 10^5 to 3 × 10^5 CFU/mL with DMEM after thawing and sonicating from frozen cultures. And 500 ul of the dilution was dispensed to each well of a new 24-well plate. Followed by, J774A.1 cells on coverslips were infected by incubation with M. tuberculosis Erdman at 37 °C for 2 h. Coverslips were then washed with HBSS and transferred to new 24-well plates. The Cultures were treated in triplicate with compounds at 0.02 μM containing DMEM and incubated at 37 °C under 5% CO2 for 16 h. At D 0 (for untreated controls) and after 7 days of incubation, macrophage cells were lysed by addition of 200 μL of 0.25% sodium dodecyl sulfate. The plates were incubated at 37 °C for 10 min, and 200 μL of DMEM was added. The lysate was sampled using a microtube and sonicated for 15 s. Then 1:1, 1:10, 1:100, and 1:1,000 dilutions were plated on 7H11 agar plates and CFU counts determined after 2 to 3 weeks of incubation at 37 °C.

In a further assay the test system is M. tuberculosis Erdman. Nature of the assay: in vivo acute M.tb Erdman infection mouse model. Also noted: species or system Mycobacterium tuberculosis. The note with it: BALB/c mice.
Setting [4] is: read-out: MIC, XDR-TB strain X15.
Where [5] appears, read: read-out: MIC, XDR-TB strain X17.
The mark [6] stands for this setting: read-out: MIC, MDR-TB strain M3.
The mark [7] stands for this setting: read-out: MIC, MDR-TB strain M4.
[8] abbreviates: read-out: MIC, MDR-TB strain M8.
Where [9] appears, read: read-out: MIC, MDR-TB strain M18.

Values after ≈ are worked out from the molar mass of the structure shown. Read-outs that look alike come from different tables or passages of the source. Where only a bound is given, the exact number is not on record here.

Broadly, the IC50 is the concentration at which inhibition is half-maximal.

As to `O=c1nc(N2CCN(CC3CCCCC3)CC2)sc2c([N+](=O)[O-])cc(C(F)(F)F)cc12` [PBTZ169], the MIC in assay [1] was at most 0.05 mg/L; in assay [2], 0.02 mg/L (≈ 0.0438 µM). Moreover, the IC50 in the assay with Vero cells was above 100 mg/L.
In the case of `CC1COc2c(N3CCN(C)CC3)c(F)cc3c(=O)c(C(=O)O)cn1c23` (stereo not drawn) [OFLX, ofloxacin], the MIC with XDR-TB clinical isolates (setting [4]) came to 8 mg/L (≈ 22.1 µM); with XDR-TB clinical isolates (setting [5]) it was 32 mg/L (≈ 88.6 µM).
For the compound `[H]/N=C(/N)N[C@H]1[C@H](O)[C@@H](O)[C@H](O[C@@H]2O[C@@H](C)[C@](O)(C=O)[C@H]2O[C@@H]2O[C@@H](CO)[C@H](O)[C@@H](O)[C@@H]2NC)[C@@H](N/C(N)=N\[H])[C@@H]1O` [SM, streptomycin], the MIC turned out to be 64 mg/L (≈ 110 µM) in the assay on MDR-TB clinical isolates (setting [6]); 8 mg/L (≈ 13.8 µM) with MDR-TB clinical isolates (setting [7]); 64 mg/L (≈ 110 µM) in the assay on MDR-TB clinical isolates (setting [8]); 64 mg/L (≈ 110 µM) with MDR-TB clinical isolates (setting [9]); 8 mg/L (≈ 13.8 µM) in the assay with XDR-TB clinical isolates (setting [4]); 64 mg/L (≈ 110 µM) in the assay on XDR-TB clinical isolates (setting [5]).
Take `CC(=O)NC[C@H]1CN(c2ccc(N3CCOCC3)c(F)c2)C(=O)O1` [LZD, Linezolid]: the MIC in the assay with M. tuberculosis H37Rv was 0.145 mg/L. Further, the “MIC against H37Rv, MIC in combo.” value with M. tuberculosis H37Rv (in combination with TB1001) was 0.1 mg/L.
`NC[C@H]1O[C@H](O[C@H]2[C@H](O)[C@@H](O[C@H]3O[C@H](CO)[C@@H](O)[C@H](N)[C@H]3O)[C@H](N)C[C@@H]2N)[C@H](O)[C@@H](O)[C@@H]1O` [KM, kanamycin]: in the assay with XDR-TB clinical isolates, the “MIC, XDR-TB strain X15” value worked out at 64 mg/L (≈ 132 µM) and the “MIC, XDR-TB strain X17” value was determined as 64 mg/L (≈ 132 µM).
For the compound `COc1c(N2C[C@@H]3CCCN[C@@H]3C2)c(F)cc2c(=O)c(C(=O)O)cn(C3CC3)c12` [MOX, moxifloxacin], in the assay with M. tuberculosis H37Rv, the MIC was 0.037 mg/L. The “MIC against H37Rv, MIC in combo.” value in the assay on M. tuberculosis H37Rv (in combination with TB1001) was 0.021 mg/L.
For the compound `CC[C@@H](CO)NCCN[C@@H](CC)CO` [EMB, ethambutol], the MIC in the assay on MDR-TB clinical isolates (setting [6]) was found to be 4 mg/L (≈ 19.6 µM); in the assay on MDR-TB clinical isolates (setting [7]) it was 2 mg/L (≈ 9.79 µM); in the assay on MDR-TB clinical isolates (setting [8]) it was 4 mg/L (≈ 19.6 µM); with MDR-TB clinical isolates (setting [9]) it was 8 mg/L (≈ 39.2 µM); in the assay with XDR-TB clinical isolates (setting [4]), 16 mg/L (≈ 78.3 µM); with XDR-TB clinical isolates (setting [5]), 16 mg/L (≈ 78.3 µM).
With `NCC[C@H](O)C(=O)N[C@@H]1C[C@H](N)[C@@H](O[C@H]2O[C@H](CN)[C@@H](O)[C@H](O)[C@H]2O)[C@H](O)[C@H]1O[C@H]1O[C@H](CO)[C@@H](O)[C@H](N)[C@H]1O` [AMK, amikacin], the MIC with XDR-TB clinical isolates (setting [4]) and with XDR-TB clinical isolates (setting [5]) was 64 mg/L (≈ 109 µM) throughout.
As to `NNC(=O)c1ccncc1` [INH, isoniazid], the MIC is 8 mg/L (≈ 58.3 µM) in the assay with MDR-TB clinical isolates (setting [6]); 1 mg/L (≈ 7.29 µM) in the assay on MDR-TB clinical isolates (setting [7]); 4 mg/L (≈ 29.2 µM) with MDR-TB clinical isolates (setting [8]); 1 mg/L (≈ 7.29 µM) in the assay with MDR-TB clinical isolates (setting [9]); 0.03 mg/L in the assay on M. tuberculosis H37Rv; 0.47 mg/L (≈ 3.43 µM) in [2]. In addition, the MIC against Mycobacterium avium was 16 mg/L (≈ 117 µM); in the assay on XDR-TB clinical isolates (setting [4]) it was 16 mg/L (≈ 117 µM); in the assay on XDR-TB clinical isolates (setting [5]), 1 mg/L (≈ 7.29 µM). Also, the “MIC against H37Rv, MIC in combo.” value with M. tuberculosis H37Rv (in combination with TB1001) came to 0.01 mg/L. In the assay on Vero cells, the IC50 is above 100 mg/L.
`C[C@H]1COc2c(N3CCN(C)CC3)c(F)cc3c(=O)c(C(=O)O)cn1c23` [LVFX, levo-ofloxacin]: in the assay with XDR-TB clinical isolates, the “MIC, XDR-TB strain X15” value is 4 mg/L (≈ 11.1 µM) and the “MIC, XDR-TB strain X17” value turned out to be 32 mg/L (≈ 88.6 µM).
On to `CO[C@H]1/C=C/O[C@@]2(C)Oc3c(C)c(O)c4c(O)c(c(/C=N/N5CCN(C)CC5)c(O)c4c3C2=O)NC(=O)/C(C)=C\C=C\[C@H](C)[C@H](O)[C@@H](C)[C@@H](O)[C@@H](C)[C@H](OC(C)=O)[C@@H]1C` [RMP, rifampicin], for which the “Log10 CFU, intracellular Mtb Erdman” value in assay [3] (J774A.1 macrophages, 0.02 μM (Fig. 2 legend: 0.02 μg/mL), 7 days) is recorded as 6.44. For the same compound, the “Fold(log) reduction” value in assay [3] (decrease of log10 CFU between D7 and treatment group, J774A.1, 0.02 μM (Fig. 2 legend: 0.02 μg/mL)) was 0.41 log. Besides, the MIC with MDR-TB clinical isolates (setting [6]), in the assay with MDR-TB clinical isolates (setting [7]), in the assay on MDR-TB clinical isolates (setting [8]), in the assay on MDR-TB clinical isolates (setting [9]), in the assay on XDR-TB clinical isolates (setting [4]) and in the assay on XDR-TB clinical isolates (setting [5]) was 64 mg/L (≈ 77.8 µM) each time. The results for the “MIC against H37Rv, MIC in combo.” value in the assay with M. tuberculosis H37Rv (in combination with BTZ043) and with M. tuberculosis H37Rv (in combination with TB1001) were 0.007 mg/L and 0.001 mg/L, respectively. For the same compound, in the assay on M. tuberculosis H37Rv (in the presence of SKLB-TB1001), the “decrease of MIC” value was 6 fold. Besides, the “reduction of bacterial concentration in lungs compared to vehicle control group” value in the assay on M. tuberculosis Erdman (15 mg/kg oral) was found to be 2.5 logs. The “Log10 CFU (SD), bacterial burden in mouse lungs” value in the assay with M. tuberculosis Erdman (Day-36, 15 mg/kg oral daily from day 10) is 3.73 (3.19).

These data come from publication PMC4942819 (Scientific Reports, 2016).
